Measured values from US4914096A, “6-aryl-substituted-4H-thieno(2,3-e)(1,2,4)triazolo(3,4-c)(1,4)diazepines” (priority 1989, dated 1990).
Like-named read-outs stand apart in the source and are kept apart here.

How the values were obtained:
PAF-induced hypotension = details: rat; for decrease in blood pressure: within 10 sec.
Procedure: Male Wistar rats, weighing approximately 300 gm, are anesthetized and their carotid arteries cannulated to enable their diastolic and systolic arterial blood pressure measurements to be recorded. PAF is then administered intravenously at either 100 or 500 ng/kg, and the blood pressure drop (within 10 sec.) and recovery time required to reach the pre-injection blood pressure level are measured. […] In order to measure the effectiveness of a compound for both the inhibition of blood pressure decreases and shortening of the recovery time, the test compound is administered intravenously over a range of between 5 and 7 dosage levels (1 or 2 test animals per dose) and between 1 and 5 minutes prior to the introduction of PAF to generate an ED50.

[1] = biological target: T1, Human Platelet PAF Receptor (Homo sapiens, UniProt P25105); experiment: Human Platelet PAF Receptor Assay test (Test A); type: binding
T1 construct: endogenous in cells; host or cells: washed platelets from the blood of healthy human donors
T1 sequence (P25105 whole entry): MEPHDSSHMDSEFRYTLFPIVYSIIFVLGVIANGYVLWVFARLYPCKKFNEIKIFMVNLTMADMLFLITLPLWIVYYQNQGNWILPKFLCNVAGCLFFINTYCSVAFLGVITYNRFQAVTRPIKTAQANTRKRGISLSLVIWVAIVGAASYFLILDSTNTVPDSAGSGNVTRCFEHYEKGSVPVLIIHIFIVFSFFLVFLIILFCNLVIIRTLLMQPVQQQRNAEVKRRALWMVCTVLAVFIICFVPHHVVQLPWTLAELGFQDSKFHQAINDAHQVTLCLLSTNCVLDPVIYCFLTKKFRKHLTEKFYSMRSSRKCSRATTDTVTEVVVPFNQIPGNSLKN
Procedure: Human blood is obtained by venipuncture of healthy, human donors into an anti-coagulant mixture containing 3.15% of trisodium citrate and 20 μg/ml of Prostaglandin I2 (PGI2) in a ratio of blood to anti-coagulant of 9:1. Platelet rich plama (PRP) is prepared by centrifugation (250×g) of the blood for 20 minutes at room temperature. The PRP is then centrifuged (900×g) for 10 minutes at room temperature and the platelet pellet is washed two times with Tris-Tyrode's (TT) solution having a pH of 7.4 and containing 0.25% bovine serum albumin (BSA), and to which has been added PGI2 at a final concentration of […]. The platelets are resuspended at […] in TT/BSA containing 1.4 mM CaCl2.2H2 O and 0.7 mM MgCl2.6H2 O. All of the tests are conducted in duplicate and each of the test compounds is evaluated at concentrations of 100, 50, 1 and 0.1 μM. […]
Each mixture is allowed to incubate at room temperature for one hour, after which time the reaction is terminated by the addition of 500 μl of ice cold TT/BSA and centrifugation (900×g) at 4° C. for 10 minutes. […] An additional 2 ml. of Scintiverse II is then added to the vials and, after mixing, the vials are counted for 1 minute in a liquid scintillation spectrometer. The amount of specific binding is calculated as the difference in cpm between the total bound (^3 H)-PAF and non-specifically bound (^3 H)-PAF. […]

[2] = system: PAF-mediated bronchoconstriction; experiment: PAF-induced Pulmonary Inflation Pressure (PIP) Increase test (Test B); type: in vivo, guinea pigs; details: Cavia porcellus, po, read-out: Test B ED50
Procedure: Furthermore, in view of their usefulness as PAF receptor antagonists, the compounds of formula I have been found useful as inhibitors of PAF-mediated bronchoconstriction, which property was evaluated by the PAF-induced Pulmonary Inflation Pressure (PIP) Increase test (Test B) as follows:
Male guinea pigs, weighing between 300 and 400 gm, are anesthetized, after which time trachea tube, carotid and jugular catheters are inserted. The test animal is then force ventilated employing a small animal Harvard respirator and the resistance to lung inflation (PIP) is measured utilizing a pressure transducer and recorder. The test compound is administered orally at 30 minutes prior to, intravenously (jugular) at 5 minutes prior to, or intraarterially at 1 to 5 minutes prior to the introduction of PAF. […] Any blood pressure measurements taken are recorded from a transducer attached to the carotid catheter. […] A reading at 15 minutes after the administration of PAF is termed the endpoint PIP. The effect of the test compound on the PIP response is determined by the difference between the percent increase in maximal PIP over baseline for the test animal to which has been administered PAF and the test compound compared to the test animal to which only PAF has been administered to generate an ED 5 C (dose needed to effect a 50% response).

[3] = system: PAF-induced human platelet aggregation; experiment: Platelet Aggregation Inhibition Assay test (PAIA test); type: cell-based; details: C-16 PAF 0.1 μM or 0.01 μM; human platelet rich plasma
Procedure: All of the compounds of formula I, as well as their pharmaceutically acceptable acid addition salts, are useful as platelet activating factor inhibitors as indicated by their ability to inhibit platelet activating factor (PAF)-induced human platelet aggregation in vitro according to the Platelet Aggregation Inhibition Assay test (PAIA test) as follows:
Human subjects are kept aspirin free for one week and fasted overnight. Platelet rich plasma (PRP) is prepared by centrifugation (200×g.) of freshly drawn blood, anti-coagulated within 0.38% sodium citrate (final concentration). Platelet count is adjusted to 250,000 per μl using platelet poor plasma (PPP) obtained by a second centrifugation (700×g.) of the blood sample. An aliquot (0.38 ml) of the PRP is dispensed into cuvettes and maintained at room temperature (22° C.) until used (but for not more than two hours). […] The aggregation response is quantitated by determining the area under the curve (AUC). The AUC calculated for the inducing agent alone is considered to be one hundred percent. The potential percent inhibition of the aggregation response is determined by dividing the AUC generated in the presence of the compound by the AUC of the inducing agent alone, multiplying by 100 and then subtracting from 100.

[4] = system: PAF-mediated extravasation; experiment: PAF-induced Extravasation test (Test C); type: in vivo, guinea pigs; details: Cavia porcellus, po, read-out: Test C ED50

Compound | decrease in blood pressure (PAF-induced hypotension; 100 ng/kg i.v.) [%] | recovery time (PAF-induced hypotension; 500 ng/kg i.v., to pre-injection blood pressure level) [min] | decrease in blood pressure (PAF-induced hypotension; 500 ng/kg i.v.) [%] | IC50 [1] [µM] | ED50 [2] [mg/kg] | IC50 [3] [µM] | ED50 [4] [mg/kg]
1-O-alkyl-2-acetyl-sn-glyceryl-3-phosphoryl-choline [PAF] | 30 | 10 | 52 |  |  |  | 
COc1cc(CCc2ccc(C3=NCc4nnc(C)n4-c4sccc43)cc2)cc(OC)c1OC [Example 1, 1-methyl-6-[4-[2-(3,4,5-trimethoxyphenyl)ethyl]phenyl]-4H-thieno[2,3-e][1,2,4]triazolo[3,4-c][1,4]diazepine] |  |  |  | 0.22 | 0.8 | 12 | 0.5
